Reference: patent publication US20220281848A1, “PYRAZOLE-SUBSTITUTED PYRROLIDINONES AS HERBICIDES” (FMC Corporation, priority 2019, published 2022)

System: plants
Experiment: Test D pre-emergence, other plants of Tables D1 and D3
Format: in vivo
Conditions: for damage to plant, ALOMY / damage to plant, AVEFA / damage to plant, BEAVA / damage to plant, BROTE / damage to plant, BRSNN / damage to plant, CHEAL / damage to plant, GALAP / damage to plant, HORVW / damage to plant, KCHSC / damage to plant, LOLPE / damage to plant, POAAN / damage to plant, POLCO / damage to plant, SINAR / damage to plant, STEME / damage to plant, VERPE: pre-emergence, 100=total damage, 0=no damage
Procedure: A formulation containing 50 g/L of the test chemical was prepared by dissolving the active ingredient in a mixture of organic solvents and emulsifier, details of which are provided in the table. This formulation was then mixed with a small, variable amount of acetone to aid dissolution, before addition of a 0.2% v/v aqueous solution of an adjuvant, as the aqueous diluent, to form an aqueous spray solution which contains a predetermined concentration of the active ingredient.
This aqueous spray solution was then sprayed onto plants including maize and wheat that had been seed treated with a herbicide safener, after one day's cultivation (for pre-emergence) or after about 12 days' cultivation (for post-emergence). The plants were grown from seeds sown in standard soil, placed in a glasshouse under controlled conditions (at 24/18° C. or 20/16° C., day/night; 16 h light; 65% humidity). After spray application the plants were then grown in a glasshouse under the same conditions and watered twice daily. After 15 d for post-emergence and 20 DAA for pre-emergence the test was evaluated (100=total damage to plant; 0=no damage to plant).

CN1CC(c2cc(C(F)(F)F)n(C)n2)C(C(=O)Nc2ccccc2F)C1=O (racemic) [Compound 9]
damage to plant (100=total damage to plant; 0=no damage to plant), SORVU (SORVU, preemergent, rate 500, 20 DAA): 0 | damage to plant, ALOMY (rate 15, 20 DAA): 0 | damage to plant, AVEFA (rate 15, 20 DAA): 0 | damage to plant, BEAVA (rate 15, 20 DAA): 0 | damage to plant, BROTE (rate 15, 20 DAA): 0 | damage to plant, BRSNN (rate 15, 20 DAA): 0 | damage to plant, CHEAL (rate 15, 20 DAA): 0 | damage to plant, GALAP (rate 15, 20 DAA): 0 | damage to plant, HORVW (rate 15, 20 DAA): 0 | damage to plant, KCHSC (rate 15, 20 DAA): 0 | damage to plant, LOLPE (rate 15, 20 DAA): 0 | damage to plant, POAAN (rate 15, 20 DAA): 0 | damage to plant, POLCO (rate 15, 20 DAA): 0 | damage to plant, SINAR (rate 15, 20 DAA): 0 | damage to plant, STEME (rate 15, 20 DAA): 0 | damage to plant, VERPE (rate 15, 20 DAA): 0 | damage to plant, ALOMY (rate 30, 20 DAA): 0 | damage to plant, AVEFA (rate 30, 20 DAA): 0 | damage to plant, BEAVA (rate 30, 20 DAA): 0 | damage to plant, BROTE (rate 30, 20 DAA): 0 | damage to plant, BRSNN (rate 30, 20 DAA): 0 | damage to plant, CHEAL (rate 30, 20 DAA): 0 | damage to plant, GALAP (rate 30, 20 DAA): 0 | damage to plant, HORVW (rate 30, 20 DAA): 0 | damage to plant, KCHSC (rate 30, 20 DAA): 0 | damage to plant, LOLPE (rate 30, 20 DAA): 0 | damage to plant, POAAN (rate 30, 20 DAA): 0 | damage to plant, POLCO (rate 30, 20 DAA): 0 | damage to plant, SINAR (rate 30, 20 DAA): 0 | damage to plant, STEME (rate 30, 20 DAA): 0 | damage to plant, VERPE (rate 30, 20 DAA): 0 | damage to plant, ALOMY (rate 60, 20 DAA): 0 | damage to plant, AVEFA (rate 60, 20 DAA): 0 | damage to plant, BEAVA (rate 60, 20 DAA): 0 | damage to plant, BROTE (rate 60, 20 DAA): 0 | damage to plant, BRSNN (rate 60, 20 DAA): 0 | damage to plant, CHEAL (rate 60, 20 DAA): 0 | damage to plant, GALAP (rate 60, 20 DAA): 0 | damage to plant, HORVW (rate 60, 20 DAA): 0 | damage to plant, KCHSC (rate 60, 20 DAA): 0 | damage to plant, LOLPE (rate 60, 20 DAA): 0 | damage to plant, POAAN (rate 60, 20 DAA): 0 | damage to plant, POLCO (rate 60, 20 DAA): 0 | damage to plant, SINAR (rate 60, 20 DAA): 0 | damage to plant, STEME (rate 60, 20 DAA): 0 | damage to plant, VERPE (rate 60, 20 DAA): 0 | damage to plant, ALOMY (rate 130, 20 DAA): 0 | damage to plant, AVEFA (rate 130, 20 DAA): 0 | damage to plant, BEAVA (rate 130, 20 DAA): 0 | damage to plant, BROTE (rate 130, 20 DAA): 0 | damage to plant, BRSNN (rate 130, 20 DAA): 0 | damage to plant, CHEAL (rate 130, 20 DAA): 0 | damage to plant, GALAP (rate 130, 20 DAA): 0 | damage to plant, HORVW (rate 130, 20 DAA): 0 | damage to plant, KCHSC (rate 130, 20 DAA): 0 | damage to plant, LOLPE (rate 130, 20 DAA): 0 | damage to plant, POAAN (rate 130, 20 DAA): 10 | damage to plant, POLCO (rate 130, 20 DAA): 0 | damage to plant, SINAR (rate 130, 20 DAA): 0 | damage to plant, STEME (rate 130, 20 DAA): 0 | damage to plant, VERPE (rate 130, 20 DAA): 0 | damage to plant, ALOMY (rate 250, 20 DAA): 0 | damage to plant, AVEFA (rate 250, 20 DAA): 10 | damage to plant, BEAVA (rate 250, 20 DAA): 0 | damage to plant, BROTE (rate 250, 20 DAA): 0 | damage to plant, BRSNN (rate 250, 20 DAA): 0 | damage to plant, CHEAL (rate 250, 20 DAA): 0 | damage to plant, GALAP (rate 250, 20 DAA): 0 | damage to plant, HORVW (rate 250, 20 DAA): 0 | damage to plant, KCHSC (rate 250, 20 DAA): 0 | damage to plant, LOLPE (rate 250, 20 DAA): 30 | damage to plant, POAAN (rate 250, 20 DAA): 10 | damage to plant, POLCO (rate 250, 20 DAA): 0 | damage to plant, SINAR (rate 250, 20 DAA): 0 | damage to plant, STEME (rate 250, 20 DAA): 10 | damage to plant, VERPE (rate 250, 20 DAA): 0 | damage to plant, ALOMY (rate 500, 20 DAA): 0 | damage to plant, AVEFA (rate 500, 20 DAA): 20 | damage to plant, BEAVA (rate 500, 20 DAA): 0 | damage to plant, BROTE (rate 500, 20 DAA): 0 | damage to plant, BRSNN (rate 500, 20 DAA): 0 | damage to plant, CHEAL (rate 500, 20 DAA): 0 | damage to plant, GALAP (rate 500, 20 DAA): 10 | damage to plant, HORVW (rate 500, 20 DAA): 0 | damage to plant, KCHSC (rate 500, 20 DAA): 0 | damage to plant, LOLPE (rate 500, 20 DAA): 20 | damage to plant, POAAN (rate 500, 20 DAA): 50 | damage to plant, POLCO (rate 500, 20 DAA): 0 | damage to plant, SINAR (rate 500, 20 DAA): 0 | damage to plant, STEME (rate 500, 20 DAA): 80 | damage to plant, VERPE (rate 500, 20 DAA): 0
